Measured values taken from ChEMBL document CHEMBL1201862, “PubChem BioAssay data set” (2004).
Activity calls are given as the source filed them.

How the values were obtained:
Insulin-degrading enzyme [1] = target: T1, Insulin-degrading enzyme (Homo sapiens, UniProt P14735); assay: recombinant IDE activation, cell-free – biochemical, fluorescence polarization, counter-screen for IDE activator project, dose response (AID 588681)
T1 sequence (P14735 whole entry): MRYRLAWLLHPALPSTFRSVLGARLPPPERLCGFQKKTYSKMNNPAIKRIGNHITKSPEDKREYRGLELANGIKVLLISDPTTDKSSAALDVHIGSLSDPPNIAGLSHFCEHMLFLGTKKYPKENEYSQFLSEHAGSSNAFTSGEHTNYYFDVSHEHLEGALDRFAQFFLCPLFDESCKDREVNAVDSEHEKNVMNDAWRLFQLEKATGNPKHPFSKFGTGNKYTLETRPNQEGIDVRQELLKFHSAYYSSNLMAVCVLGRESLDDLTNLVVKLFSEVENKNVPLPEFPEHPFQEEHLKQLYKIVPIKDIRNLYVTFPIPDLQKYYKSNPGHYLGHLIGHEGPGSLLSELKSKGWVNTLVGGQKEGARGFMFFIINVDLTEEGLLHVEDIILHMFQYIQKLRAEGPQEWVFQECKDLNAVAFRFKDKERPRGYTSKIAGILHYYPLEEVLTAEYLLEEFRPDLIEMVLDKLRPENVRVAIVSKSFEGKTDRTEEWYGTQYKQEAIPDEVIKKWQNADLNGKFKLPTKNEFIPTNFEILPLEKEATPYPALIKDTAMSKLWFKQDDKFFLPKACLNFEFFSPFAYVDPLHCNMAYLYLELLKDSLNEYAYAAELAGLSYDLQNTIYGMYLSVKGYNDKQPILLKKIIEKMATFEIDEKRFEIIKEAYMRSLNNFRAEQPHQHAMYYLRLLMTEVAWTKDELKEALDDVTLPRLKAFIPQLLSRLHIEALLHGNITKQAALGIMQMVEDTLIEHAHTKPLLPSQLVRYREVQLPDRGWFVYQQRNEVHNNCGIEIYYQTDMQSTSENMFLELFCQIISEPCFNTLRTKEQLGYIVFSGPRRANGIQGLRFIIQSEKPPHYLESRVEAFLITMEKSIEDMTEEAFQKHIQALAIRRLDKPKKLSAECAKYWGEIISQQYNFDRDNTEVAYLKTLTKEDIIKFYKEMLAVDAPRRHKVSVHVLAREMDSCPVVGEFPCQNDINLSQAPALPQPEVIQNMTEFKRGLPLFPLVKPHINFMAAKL

Insulin-degrading enzyme [2] = target: T1, Insulin-degrading enzyme; assay: cellular IDE activation of Abeta substrate cleavage – fluorescence polarization, HEK cells, dose response (AID 588439); assay type: functional, cell-based
HEK293 [3] = assay: membrane integrity loss in HEK cells – cell-based, fluorescence, cytotoxicity control for IDE activator project, dose response (AID 588440); assay type: functional; details: Homo sapiens;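 also: cytotoxicity by LDH release measuring loss of membrane integrity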
HEK293 [4] = assay: optical interference in Abeta FP readout, dose response, artefact control for IDE activator project, biochemical, fluorescence polarization (AID 588442); assay type: functional, cell-based; details: Homo sapiens
[5] = target: T2, Hepatocyte nuclear factor 4-alpha (Homo sapiens, UniProt P41235); assay type: functional, cell-based;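 also: biochemical luminescence-based dose-response counterscreen measuring inhibition of HNF4 dimerization, run alongside a screen for blockers of ABHD5–perilipin-5 interaction; split luciferase complementation of HNF4 fusion proteins in cell lysate measuring dimerization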
T2 sequence (P41235 whole entry): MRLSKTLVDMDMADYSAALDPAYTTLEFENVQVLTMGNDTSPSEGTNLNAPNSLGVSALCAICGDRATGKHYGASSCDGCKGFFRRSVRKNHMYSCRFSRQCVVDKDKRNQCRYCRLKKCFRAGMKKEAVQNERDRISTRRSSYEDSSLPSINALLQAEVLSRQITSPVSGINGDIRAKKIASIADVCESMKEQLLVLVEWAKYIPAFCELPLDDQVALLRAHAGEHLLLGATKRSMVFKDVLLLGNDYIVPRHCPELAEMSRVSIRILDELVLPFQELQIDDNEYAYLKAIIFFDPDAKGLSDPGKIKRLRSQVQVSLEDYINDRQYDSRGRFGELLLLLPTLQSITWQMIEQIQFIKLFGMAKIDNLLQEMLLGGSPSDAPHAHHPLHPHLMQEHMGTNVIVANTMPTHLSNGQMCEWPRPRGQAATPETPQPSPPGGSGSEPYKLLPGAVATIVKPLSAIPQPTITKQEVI

[6] = Luminescence Cell-Based Dose Retest to Confirm Inhibitors of Cancer Stem Cells. [Related pubchem assays (depositor defined):AID2717, AID2721]; assay type: functional; details: Homo sapiens
Caspase-3 = target: T3, Caspase-3 (Homo sapiens, UniProt P42574); assay type: functional;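 also: Dose-response selectivity test against caspase-3 for candidate inhibitors of sentrin-specific proteases (SENPs)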
T3 sequence (P42574 whole entry): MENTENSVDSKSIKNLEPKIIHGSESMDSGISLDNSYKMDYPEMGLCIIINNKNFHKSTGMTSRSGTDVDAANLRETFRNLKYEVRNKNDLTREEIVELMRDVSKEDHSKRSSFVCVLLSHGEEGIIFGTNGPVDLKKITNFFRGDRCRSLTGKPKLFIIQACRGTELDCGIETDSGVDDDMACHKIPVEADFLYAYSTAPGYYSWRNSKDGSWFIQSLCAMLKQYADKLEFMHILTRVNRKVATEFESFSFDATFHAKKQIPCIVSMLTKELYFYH

[7] = target: T4, Sentrin-specific protease 7 (Homo sapiens, UniProt Q9BQF6); assay type: functional;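 also: Luminescence-based dose-response confirmation of ultra-high-throughput screening hits, measuring inhibition of SENP7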
T4 sequence (Q9BQF6 whole entry): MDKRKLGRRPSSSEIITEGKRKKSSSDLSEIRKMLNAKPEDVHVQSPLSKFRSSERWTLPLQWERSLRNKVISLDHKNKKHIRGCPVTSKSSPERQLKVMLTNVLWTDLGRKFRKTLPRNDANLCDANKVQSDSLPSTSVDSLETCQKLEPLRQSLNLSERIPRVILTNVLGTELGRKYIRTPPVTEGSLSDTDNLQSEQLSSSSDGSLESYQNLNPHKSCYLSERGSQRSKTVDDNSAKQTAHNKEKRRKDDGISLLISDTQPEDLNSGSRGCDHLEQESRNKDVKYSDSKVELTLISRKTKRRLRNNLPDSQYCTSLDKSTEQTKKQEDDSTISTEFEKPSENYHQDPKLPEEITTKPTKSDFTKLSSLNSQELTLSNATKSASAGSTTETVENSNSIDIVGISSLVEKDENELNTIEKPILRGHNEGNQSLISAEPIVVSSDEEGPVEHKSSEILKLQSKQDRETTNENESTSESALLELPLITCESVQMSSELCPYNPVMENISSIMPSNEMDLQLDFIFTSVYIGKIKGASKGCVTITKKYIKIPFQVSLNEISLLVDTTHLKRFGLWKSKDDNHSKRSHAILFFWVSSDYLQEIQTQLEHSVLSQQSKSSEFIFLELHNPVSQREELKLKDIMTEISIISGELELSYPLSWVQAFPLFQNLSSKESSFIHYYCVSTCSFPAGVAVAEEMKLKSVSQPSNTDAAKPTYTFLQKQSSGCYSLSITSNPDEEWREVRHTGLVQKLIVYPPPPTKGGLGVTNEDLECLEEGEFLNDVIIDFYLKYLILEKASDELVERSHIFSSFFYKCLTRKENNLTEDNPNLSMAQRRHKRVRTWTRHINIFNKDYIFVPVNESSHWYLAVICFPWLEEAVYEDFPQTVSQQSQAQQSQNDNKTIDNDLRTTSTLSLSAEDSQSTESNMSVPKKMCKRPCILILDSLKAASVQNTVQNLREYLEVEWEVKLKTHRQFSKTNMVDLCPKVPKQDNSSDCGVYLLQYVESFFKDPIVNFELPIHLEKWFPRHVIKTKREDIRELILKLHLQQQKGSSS

[8] = target: T5, Sentrin-specific protease 6 (Homo sapiens, UniProt Q9GZR1); assay type: functional;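 also: Luminescence-based dose-response confirmatory assay of SENP6 inhibition, following up an ultra-high-throughput screen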
T5 sequence (Q9GZR1 whole entry): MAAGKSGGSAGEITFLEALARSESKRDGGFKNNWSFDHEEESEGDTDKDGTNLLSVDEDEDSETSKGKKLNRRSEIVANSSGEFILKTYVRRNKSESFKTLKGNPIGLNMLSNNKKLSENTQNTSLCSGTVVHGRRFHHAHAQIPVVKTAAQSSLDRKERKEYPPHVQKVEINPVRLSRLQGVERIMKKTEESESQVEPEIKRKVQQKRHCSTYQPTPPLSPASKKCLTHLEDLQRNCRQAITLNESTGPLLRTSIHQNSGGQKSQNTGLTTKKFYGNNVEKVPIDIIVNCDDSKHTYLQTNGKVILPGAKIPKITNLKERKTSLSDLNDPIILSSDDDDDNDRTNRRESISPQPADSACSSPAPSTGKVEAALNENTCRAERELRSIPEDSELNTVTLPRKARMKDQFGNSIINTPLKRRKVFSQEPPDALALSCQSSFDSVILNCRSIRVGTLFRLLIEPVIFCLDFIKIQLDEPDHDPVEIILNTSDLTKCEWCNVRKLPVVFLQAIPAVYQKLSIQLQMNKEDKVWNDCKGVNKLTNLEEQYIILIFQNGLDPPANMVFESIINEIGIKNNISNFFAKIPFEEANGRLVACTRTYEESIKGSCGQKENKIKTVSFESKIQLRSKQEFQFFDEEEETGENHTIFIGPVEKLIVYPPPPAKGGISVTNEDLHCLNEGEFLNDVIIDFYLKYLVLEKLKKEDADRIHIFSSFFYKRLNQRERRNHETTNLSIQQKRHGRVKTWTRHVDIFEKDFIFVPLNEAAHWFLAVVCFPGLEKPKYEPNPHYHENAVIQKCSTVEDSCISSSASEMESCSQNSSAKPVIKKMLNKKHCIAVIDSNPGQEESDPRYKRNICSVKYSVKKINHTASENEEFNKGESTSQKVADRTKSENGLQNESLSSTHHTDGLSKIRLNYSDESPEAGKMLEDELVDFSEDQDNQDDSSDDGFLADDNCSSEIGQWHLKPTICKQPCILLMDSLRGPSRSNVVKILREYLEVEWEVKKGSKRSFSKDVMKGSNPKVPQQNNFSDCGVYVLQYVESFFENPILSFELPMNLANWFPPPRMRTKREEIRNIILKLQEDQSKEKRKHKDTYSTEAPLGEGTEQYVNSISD

[9] = target: T6, Sentrin-specific protease 8 (Homo sapiens, UniProt Q96LD8); assay type: functional;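 also: luminescence read-out of SENP8 inhibition, dose-response confirmation following an ultra-high-throughput screen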
T6 sequence (Q96LD8 whole entry): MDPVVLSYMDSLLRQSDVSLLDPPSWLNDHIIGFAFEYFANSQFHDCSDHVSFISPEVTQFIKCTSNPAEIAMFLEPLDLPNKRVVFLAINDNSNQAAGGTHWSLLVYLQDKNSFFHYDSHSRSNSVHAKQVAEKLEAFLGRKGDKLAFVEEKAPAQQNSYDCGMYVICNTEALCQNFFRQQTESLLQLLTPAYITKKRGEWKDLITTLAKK

Vero = assay: viability of Vero cells under compound – cytotoxicity control for flavivirus capping enzyme inhibitors (AID 588742); assay type: functional; details: Chlorocebus sabaeus
Genome polyprotein = Genome polyprotein (dengue virus type 2, UniProt P29990); assay: flavivirus cap methylation enzyme inhibition – biochemical, confirmation dose response, primary screen (AID 588689); assay type: functional
Sequence of Genome polyprotein (P29990 2492-3391 limits assumed): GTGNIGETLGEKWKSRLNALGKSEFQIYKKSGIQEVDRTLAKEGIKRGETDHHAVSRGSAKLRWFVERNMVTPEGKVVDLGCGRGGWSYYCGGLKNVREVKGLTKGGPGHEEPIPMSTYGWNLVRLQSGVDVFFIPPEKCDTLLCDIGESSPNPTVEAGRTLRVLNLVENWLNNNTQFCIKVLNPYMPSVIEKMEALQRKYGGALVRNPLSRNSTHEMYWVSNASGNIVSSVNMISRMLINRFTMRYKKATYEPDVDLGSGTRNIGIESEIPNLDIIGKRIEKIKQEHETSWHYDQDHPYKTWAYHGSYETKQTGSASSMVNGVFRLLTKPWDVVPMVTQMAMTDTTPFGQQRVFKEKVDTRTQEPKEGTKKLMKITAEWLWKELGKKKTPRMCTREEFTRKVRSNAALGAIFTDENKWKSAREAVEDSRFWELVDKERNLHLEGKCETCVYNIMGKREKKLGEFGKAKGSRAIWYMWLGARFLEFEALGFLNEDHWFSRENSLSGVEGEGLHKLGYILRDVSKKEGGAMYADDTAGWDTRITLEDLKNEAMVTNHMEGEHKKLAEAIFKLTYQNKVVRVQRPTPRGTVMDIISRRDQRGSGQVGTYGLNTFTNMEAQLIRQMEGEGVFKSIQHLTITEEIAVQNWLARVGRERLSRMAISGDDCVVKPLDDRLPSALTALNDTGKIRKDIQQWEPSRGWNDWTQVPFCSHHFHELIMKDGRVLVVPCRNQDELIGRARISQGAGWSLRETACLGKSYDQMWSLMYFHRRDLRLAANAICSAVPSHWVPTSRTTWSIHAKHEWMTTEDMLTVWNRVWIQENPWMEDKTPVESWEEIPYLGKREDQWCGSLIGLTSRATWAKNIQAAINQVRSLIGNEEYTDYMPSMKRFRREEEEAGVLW

[10] = system: Streptococcus sp. 'group A'; assay: Streptococcus pyogenes SK(-)GAS viability under kanamycin – luminescence, BacTiterGlo, confirmation, counter-screen for streptokinase expression inhibitor project, dose response (AID 1900); assay type: functional, organism-based
Streptokinase A = target: T7, Streptokinase A (Streptococcus pyogenes serotype M1, UniProt P10520); assay: viability-normalized secreted streptokinase activity reduction – plasminogen activation absorbance, OD405, dose response (AID 1914); assay type: functional, Streptococcus pyogenes M1 GAS;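 also: secreted streptokinase activity via plasminogen activation per viability signal from cell pellet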
T7 sequence (P10520 whole entry): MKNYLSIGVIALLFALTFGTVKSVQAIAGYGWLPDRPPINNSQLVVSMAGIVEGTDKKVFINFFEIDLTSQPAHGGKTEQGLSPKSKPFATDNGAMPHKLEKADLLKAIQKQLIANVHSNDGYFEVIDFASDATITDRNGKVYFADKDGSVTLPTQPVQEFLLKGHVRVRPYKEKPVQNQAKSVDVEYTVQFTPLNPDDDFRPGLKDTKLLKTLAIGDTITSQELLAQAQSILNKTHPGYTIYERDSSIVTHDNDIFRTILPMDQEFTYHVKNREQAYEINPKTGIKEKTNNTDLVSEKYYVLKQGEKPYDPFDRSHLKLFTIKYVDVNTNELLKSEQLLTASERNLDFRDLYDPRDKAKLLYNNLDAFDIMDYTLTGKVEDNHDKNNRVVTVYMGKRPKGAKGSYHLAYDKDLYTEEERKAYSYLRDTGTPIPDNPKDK

Streptococcus = assay: GAS UMAA2166 growth inhibition – luminescence, BacTiterGlo, counter-screen for streptokinase expression inhibitor project, dose response (AID 1915); assay type: functional, organism-based;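 also: potency for reduction of bacterial viability or growth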
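For AC50 in this document: cells exposed to compound for roughly 70 hours or longer before luminescence read.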

| SMILES | EC50 (Insulin-degrading enzyme [1]) | EC50 (Insulin-degrading enzyme [2]) | IC50 (HEK293 [3]) | EC50 (HEK293 [4]) | IC50 [5] | CC50 (Vero) | IC50 (Genome polyprotein) | also measured |
| --- | --- | --- | --- | --- | --- | --- | --- | --- |
| OC(CNC1CCCCC1)C(F)(F)F (configuration not stated) | > 54.7 µM (inactive) | > 54.7 µM (inactive) | > 89.1 µM (inactive) | > 55.9 µM (inactive) | – | – | – | – |
| O=C(NCc1ccccc1)C(c1ccccc1)n1c(=O)c(-c2ccco2)nc2ccccc21 (configuration not stated) | – | – | – | – | 2.93 µM (active) | – | – | – |
| COc1ccc(NC(=O)c2cc3ccccc3cc2O)cc1 | – | – | – | – | 10 µM (inactive) | 34.6 µM (active) | > 100 µM (active) | AC50 [6]: 6.04 µM (active); IC50 (Caspase-3): 20.7 µM (active); IC50 [7]: 5.51 µM (active); IC50 [8]: 72.6 µM (active); IC50 [9]: > 100 µM (inactive) |
| CCN(c1ccccc1)S(=O)(=O)c1ccc(N2CCN(c3ccc(OC)cc3)CC2)nc1 | > 54.7 µM (inactive) | > 54.7 µM (inactive) | > 89.2 µM (inactive) | > 55.9 µM (inactive) | – | – | – | – |
| C[C@H]1COC2=C1C(=O)C(=O)c1c2ccc2c1CCCC2(C)C [CRYPTOTANSHINONE] | – | – | – | – | – | 33.4 µM (active) | 90.1 µM (active) | EC50 [10]: 5.17 µM (active); EC50 (Streptokinase A): 14.8 µM (active); EC50 (Streptococcus): 14.1 µM (active) |
